Measurements as given in publication PMC7492092 (European journal of medicinal chemistry, 2020).

Columns and labels:
[1] = Microsomal stability assay, human liver microsomes; format: in vitro ADME; conditions: pre-incubation with Cobi vs without
[2] = Microsomal stability assay, mouse liver microsomes; format: in vitro ADME; conditions: pre-incubation with Cobi vs without
[3] = Cytotoxicity assay; format: cell-based; conditions: human, TZM-GFP cells

| SMILES | increase of half-life with Cobicistat (HLM) [1] | increase of half-life with Cobicistat (MLM) [2] | CC50 at 72 h [3] |
| --- | --- | --- | --- |
| CN(C(=O)[C@H](Cc1ccccc1)NC(=O)Cc1c[nH]c2ccccc12)c1ccc(Br)cc1 [Compd 32, (S)-2-(2-(1H-indol-3-yl)acetamido)-N-(4-bromophenyl)-N-methyl-3-phenylpropanamide] | 62 fold | 74 fold |  |
| CN(C(=O)[C@H](Cc1ccccc1)NC(=O)Cc1c[nH]c2ccccc12)c1ccc(Cl)nc1 [Compd 37, (S)-2-(2-(1H-indol-3-yl)acetamido)-N-(6-chloropyridin-3-yl)-N-methyl-3-phenylpropanamide] |  |  | 57 ± 0.3 µM |
